Data reported in publication PMC12040169 (PLOS Biology, 2025).

assay: in vitro; conditions: human, hela cells, % viability

Row | Structure (SMILES) | viability at 28.5 h, 10 µM
1 | O=C(NCCF)c1cn2cc(-c3cccs3)n(CC3CC3)c(=O)c2n1 [CBK307367] | 96.8%
2 | CN(C)S(=O)(=O)c1ccc(C(=O)Nc2ccc(N3CCOCC3)c(Cl)c2)cc1 [CBK267383] | 87.7%
3 | CC(C)(C)OC(=O)N1CCC(C2OCc3cc(-c4ccc(C(=O)N5CCOCC5)o4)ccc3O2)CC1 (centres unmarked) [CBK173615] | 85.6%
4 | O=C(c1ccco1)N1CCN(C2C3CCCC2CNC3)CC1 (centres unmarked) [CBK284992] | 94.4%
5 | Cc1nnc2sc(-c3ccccc3NC(=S)NC(=O)c3cc4ccccc4o3)nn12 [CBK268845] | 103%
6 | CCc1nn(CC(=O)NC2CC2)c(=O)c2cc3sc(C)cc3n12 [CBK284099] | 91.9%
7 | COc1cc2c(cc1OC)C1c3ccccc3NC(c3ccc(C)cc3)N1CC2 (centres unmarked) [CBK286195] | 72.7%
8 | Cc1ccc(C2=NO[C@@](CC(=O)O)(C(=O)Nc3ccc4c(c3)OCCO4)C2)cc1 [CBK286653] | 85.1%
9 | COc1ccc(-c2cncc(NCC3CCOCC3)n2)cc1 [CBK037285] | 96.5%
10 | CN(C)CC(Oc1ccccc1)C(=O)c1ccccc1 (centres unmarked) [CBK011935C] | 101%
11 | Cc1cc(C)c(NC(=O)CSc2n[nH]c(=O)n2C2CC2)c(C)c1 [CBK295598] | 95%
12 | Cc1ccc(C(=O)N2CN(C(=O)CN3CCOCC3)CC(C)(C)C2)cc1 [CBK039190] | 105%
13 | COc1ccccc1CC(=O)N1CCCC1c1nc2ccccc2[nH]1 (centres unmarked) [CBK285517] | 94.6%
14 | O=C(Cc1c[nH]c2ccccc12)NC1CCCC1 [CBK200238] | 76.1%
15 | O=CN1CCc2c([nH]c3cc(F)ccc23)C12CCN(CCc1cccs1)CC2 [CBK040312] | 81.2%
16 | CCc1nn2c(=O)cc(CN3C(=O)COc4cccnc43)nc2s1 [CBK306599] | 88.9%
17 | COCC(=O)NC1CCN(CC2(c3ccc(F)cc3)CCCC2)CC1 [CBK285387] | 95.5%
18 | O=C(O)/C=C/c1cccc(/C=C/C(=O)O)c1 [CBK261650] | 89.9%
19 | Clc1ccc(SCCN2CCOCC2)cc1 [CBK265055G] | 98.8%
20 | Cc1ccc2c(c1)cc(C(=O)N(C)CC1(C)COC1)n2C [CBK281723] | 86.4%
21 | Cc1ccc(N2CCCN(C(=O)COc3ccccc3F)CC2)nn1 [CBK305261] | 99.4%
22 | Cc1cc(C)n2nc(CCCOC(=O)c3ccn(C(C)C)n3)nc2n1 [CBK305272] | 112%

Row | Structure (SMILES) | viability at 28.5 h, 10 µM
23 | CC(=O)c1cc(C(=O)N(C)CCOc2ccccc2)cs1 [CBK282560] | 99.6%
24 | CC(=O)N1CCC2(C/C=C/C[C@H]3CN(C(=O)CCC4CCCC4)CC[C@H]3NC(=O)CNC2=O)CC1 [CBK292111] | 87%
25 | CC(=O)Nc1ccc(C(=O)NCc2ccc(S(N)(=O)=O)cc2)cc1 [CBK263642] | 105%
26 | COc1ccc(C(C)NC(=O)c2c3c(nn2C)CCCC3)cc1F (centres unmarked) [CBK281406] | 106%
27 | c1cncc(-c2cn3ccnc3c(NC3CCCCC3)n2)c1 [CBK093606] | 84.6%
28 | C[C@@H](c1ccccc1)n1c(=O)[nH]c2ncc(-c3cccc(C(=O)NCCN(C)C)c3)nc21 [CBK064376] | 103%
29 | CC(C)n1c(COc2ccc(OC(F)(F)F)cc2)n[nH]c1=S [CBK012989] | 92.9%
30 | O=c1[nH]nc2c(N3CCc4ccccc4C3)nccn12 [CBK288497] | 80.9%
31 | CCCOC(=O)c1c(NC(=O)C2C3C=CC(C3)C2C(=O)O)sc2c1CCC(C)C2 (centres unmarked) [CBK265473] | 87.5%
32 | CC1CCN(Cc2c(C3CCNCC3)[nH]c3ncccc23)CC1 [CBK285022] | 91.7%
33 | OCCNc1nc(-c2cccnc2)nc2ccccc12 [CBK262314] | 105%
34 | Cc1ccc([C@]2(O)CC[C@H]3CN(Cc4cccc(F)c4F)C[C@H]32)nc1 [CBK283088] | 98.1%
35 | COc1ccc(C)cc1NC(=O)CN(c1ccccc1)S(=O)(=O)c1ccc(F)cc1 [CBK268223] | 99.1%
36 | CC(O)CNCc1ccc(OCC(=O)NC(C)(C)C)cc1 (centres unmarked) [CBK270232C] | 87.1%
37 | C/C(CCS(=O)(=O)c1ccc(Br)cc1)=N\NC(N)=S [CBK261370] | 102%
38 | CCCOc1ccc(O)cc1 [CBK122802] | 97.8%
39 | COc1cccc(C(=O)NCCC(=O)N2CCc3sccc3C2)c1 [CBK305376] | 108%
40 | O=C(Cc1ccc(NS(=O)(=O)c2cc(Cl)c(Cl)s2)nc1)N1CCOCC1 [CBK003790] | 96.5%
41 | O=C(O)c1ccc(NCc2ccccc2OCc2ccc(F)cc2)cc1 [CBK266487] | 101%
42 | CC(C)[C@@H](CO)Nc1cncc(-c2ccc(O)cc2)n1 [CBK066038] | 97.8%
43 | O=C(COc1ccc([N+](=O)[O-])cc1)Nc1ccc(CN2CCCCC2)cc1 [CBK266204] | 118%
44 | CN(C)C(=O)c1ccc(-c2cnc(N)c(-c3ccc(O)cc3)n2)cc1 [CBK116686] | 91.7%

Row | Structure (SMILES) | viability at 28.5 h, 10 µM
45 | COc1ccc(N2C(=O)c3ccc(C(=O)OCC(=O)c4ccc(-c5ccccc5)cc4)cc3C2=O)cc1 [CBK263532] | 95.8%
46 | O=C(O)C(Cc1ccccc1)N1C(=O)/C(=C/C=C/c2ccccc2)SC1=S (centres unmarked) [CBK263496] | 99.6%
47 | CCN(CC)c1ccc(CN(CCCN(C)C)C(=O)NCc2ccc(F)cc2)cc1 [CBK159410] | 89.9%
48 | COc1ccccc1Oc1ccc(C(F)(F)F)cc1[N+](=O)[O-] [CBK002845] | 99%
49 | CS(=O)(=O)N(CC(=O)N1CCN(C(c2ccccc2)c2ccccc2)CC1)c1cccc(F)c1 [CBK266330] | 105%
50 | Cn1cc(I)c(C(=O)NNC(=S)Nc2ccc(S(N)(=O)=O)cc2)n1 [CBK267066] | 106%
51 | Cc1cc(C)cc(NC(=O)C(Cc2ccccc2)C(=O)Nc2cc(C)cc(C)c2)c1 [CBK266165] | 106%
52 | CC(C)c1cc2c(s1)NC(c1ccccc1)NC2=O (centres unmarked) [CBK288209] | 92.9%
53 | C=CCOC(=O)N1CCC(C(=O)N(C)C(c2cccc(OC)c2)c2ccccn2)CC1 (centres unmarked) [CBK060244] | 91.5%
54 | CS(=O)(=O)c1ccc(CNc2nccnc2-c2ccccc2F)cc1 [CBK036836] | 96.4%
55 | Cc1nc(N)sc1-c1csc(Nc2ncccn2)n1 [CBK263307B] | 108%
56 | COc1ccc(C)cc1N(C(=O)c1ccccn1)c1nc2ccccc2s1 [CBK297944] | 97.7%
57 | CCn1cc(C2CN(S(=O)(=O)c3cccc(C)c3Cl)CCO2)cn1 (centres unmarked) [CBK304226] | 91.3%
58 | O=[N+]([O-])c1cnc(NS(=O)(=O)c2ccc(-c3cc(C(F)(F)F)on3)s2)s1 [CBK067545] | 103%
59 | Clc1cc2nc(OCCCc3ccncc3)c(N3CCCC3)nc2cc1Cl [CBK115774] | 98%
60 | O=C(NCc1ccc(Cl)c(Cl)c1)c1cnoc1-c1ccccc1Cl [CBK154942] | 98.4%
61 | Nc1cc2ccccc2c(-c2ccsc2)n1 [CBK085710] | 85.3%
62 | CCCc1nc(SC)ncc1C(=O)Nc1nnc(SCC)s1 [CBK291198] | 108%
63 | C/C(=N\NS(=O)(=O)c1ccc(C)cc1)C(C)(C)CC(=O)O [CBK263601] | 102%
64 | CCNc1nc(-c2ccc(Oc3ccccc3)cc2)cn2ccnc12 [CBK066467] | 94.6%
65 | O=c1[nH]c2ccccc2n1C1CCN(S(=O)(=O)c2cc(Cl)cc(Cl)c2O)CC1 [CBK149694] | 81.4%
66 | O=C(COc1ccccc1)c1cn(CC(=O)N2CCc3ccccc32)c2ccccc12 [CBK267659] | 93.5%

Row | Structure (SMILES) | viability at 28.5 h, 10 µM
67 | O=C1C(=CNCc2ccco2)C(=O)c2ccccc21 [CBK262688] | 115%
68 | N#C/C(=C\C=C\c1ccc([N+](=O)[O-])cc1)c1nc(-c2cc3cc([N+](=O)[O-])ccc3oc2=O)cs1 [CBK262357] | 93.7%
69 | CC(=O)C(C(=O)Nc1ccc(F)cc1)C(c1cccc2ccccc12)C(C#N)C#N (centres unmarked) [CBK262081] | 90.4%
70 | O=C1CC(c2ccccc2)CC(=O)C1=CNCc1ccccn1 (centres unmarked) [CBK262521] | 105%
71 | CCCN1CC2(CCN(Cc3nccn3C)CC2)CC1C(=O)O (centres unmarked) [CBK307658] | 83.2%
72 | COc1ccc(-c2nc3ccc(C)cc3c(C(=O)NCCc3ccc(S(N)(=O)=O)cc3)c2C)cc1 [CBK267753] | 123%
73 | O=C(O)c1cc(NCc2ccccc2)ccc1N1CCOCC1 [CBK287099] | 101%
74 | CC1(C)Sc2nc3ccccc3n2C1=O [CBK022971] | 85.4%
75 | O=S(=O)(c1ccccc1)C1CC1 [CBK023184] | 89%
76 | O=c1nc(-c2cc(Br)cs2)[nH]c2ccc(Cl)cc12 [CBK018959] | 90.5%
77 | CCCS(=O)(=O)NC1CCN(c2nc(C(F)(F)F)nc3[nH]cnc23)CC1 [CBK304587] | 105%
78 | CCOC(=O)N/N=C1\CCCCC1CC (centres unmarked) [CBK016112] | 84.7%
79 | CC(=O)c1cccc(NC(=O)Cn2nc(N3CCSCC3)ccc2=O)c1 [CBK307625] | 102%
80 | Cc1ccc(-c2csc(CC#N)n2)cc1 [CBK047576] | 79.3%
81 | NCCNc1ccc([N+](=O)[O-])c(Sc2nc3ccccc3[nH]2)c1 [CBK265882] | 106%
82 | CN1CCN(C(=O)c2cc(Br)cnc2NCc2cccnc2)CC1 [CBK076347] | 87.3%
83 | O=C(COc1ccc(Br)cc1)Nc1ccc(Cl)c(-c2nc3ccccc3[nH]2)c1 [CBK263075] | 92%
84 | COC(=O)c1ccsc1NS(=O)(=O)c1ccc(Oc2ccccc2)cc1 [CBK039064] | 108%
85 | CCOC(=O)C1CCCN(c2c(C#N)cnc3ccc(Cl)cc23)C1 (centres unmarked) [CBK304405] | 85.8%
86 | CCc1nc2cc(NC(=O)CCCn3ccnc3C)ccc2n1CC [CBK281609] | 101%
87 | O=C(O)COc1ccc(NC(=O)c2ccc3c(c2)C(=O)N(CC2CCCO2)C3=O)cc1 (centres unmarked) [CBK263719] | 92.5%
88 | CCN1CCCN(c2ccc(-n3ccc(C)n3)nn2)CC1 [CBK306297] | 108%

same assay, conditions: human, hela cells, % viability, bulk resorufin, single well

Row | Structure (SMILES) | viability at 28.5 h, 10 µM
89 | COc1ccc2c(c1)COC1(CCN(C(=O)C3CCC3C(=O)O)CC1)O2 (centres unmarked) [CBK060857] | 97.1%
